Assay: stability of compound 1 in prep-HPLC fractions
Assay type: physicochemical
Conditions: prep-HPLC fractions (0.01% TFA aqueous solution / acetonitrile); needs to freeze immediately for lyophilization
Source text: The crude compound 1 was purified by prep-HPLC (Mobile phase A: 0.01% TFA aqueous solution (v/v); Mobile phase B: Acetonitrile) and the purified product was lyophilized to give compound 1 with 98 A % HPLC purity as a white solid in 51% yield over two steps. (Note: The compound 1 in prep-HPLC fractions is not stable, and it needs to freeze immediately for lyophilization. The residual TFA in solid is 0.1 equiv to E)

Structure (SMILES): O=C(O)CN(CC(=O)O)[C@@H]1CCCC[C@H]1N(CC(=O)O)Cc1ccc(CC(=O)Oc2c(F)c(F)cc(F)c2F)cc1 [compound 1, 2,2′-(((1R,2R)-2-((carboxymethyl)(4-(2-oxo-2-(2,3,5,6-tetrafluorophenoxy)ethyl)benzyl)amino)cyclohexyl)azanediyl)diacetic acid]
- stability in prep-HPLC fractions: not stable

Reference: patent publication US20240294464A1, “SYNTHESIS OF RESTRAINED COMPLEXING AGENTS” (Genentech, Inc., priority 2021, published 2024)
